Measured values from ChEMBL document CHEMBL1201862, “PubChem BioAssay data set” (2004).
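Results reflect a 48-hour exposure of cells in 96-well plates to compound at five concentrations. Here, GI50 denotes the concentration required for 50% inhibition of growth.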 Calls of active or inactive are those of the source. No stated cut-off is given here; in the data, active = GI50 up to about 1.1 µM and inactive = higher.

How the values were obtained:
Assay in all cases: inhibition of tumour cell growth, NCI panel, 48 h
786-0 = system: 786-0
A498 = system: A498
A549 = system: A549
ACHN = system: ACHN
CAKI-1 = system: CAKI-1
CCRF-CEM = system: CCRF-CEM
COLO 205 = system: COLO 205
DLD-1 = system: DLD-1
DMS-114 = system: DMS-114
DMS-273 = system: DMS-273
EKVX = system: EKVX
HCC 2998 = system: HCC 2998
HCT-116 = system: HCT-116
HL-60 = system: HL-60
HOP-62 = system: HOP-62
IGROV-1 = system: IGROV-1
K562 = system: K562
KM-20L2 = system: KM-20L2
KM12 = system: KM12
LOX IMVI = system: LOX IMVI
LXFL 529 = system: LXFL 529
M14 = system: M14
MOLT-4 = system: MOLT-4
Malme-3M = system: Malme-3M
NCI-H226 = system: NCI-H226
NCI-H23 = system: NCI-H23
NCI-H460 = system: NCI-H460
NCI-H522 = system: NCI-H522
OVCAR-3 = system: OVCAR-3
OVCAR-4 = system: OVCAR-4
OVCAR-5 = system: OVCAR-5
OVCAR-8 = system: OVCAR-8
RPMI-8226 = system: RPMI-8226
SF-268 = system: SF-268
SF-295 = system: SF-295
SF-539 = system: SF-539
SK-MEL-5 = system: SK-MEL-5
SN12C = system: SN12C
SNB-19 = system: SNB-19
SR = system: SR
SW-620 = system: SW-620
UACC-257 = system: UACC-257
UACC-62 = system: UACC-62
UO-31 = system: UO-31
BT-549 = system: BT-549
DU-145 = system: DU-145
HCT-15 = system: HCT-15
HOP-92 = system: HOP-92
HT-29 = system: HT-29
Hs-578T = system: Hs-578T
MCF7 = system: MCF7
MDA-MB-231 = system: MDA-MB-231
MDA-MB-435 = system: MDA-MB-435
MDA-N = system: MDA-N
NCI/ADR-RES = system: NCI/ADR-RES
PC-3 = system: PC-3
RXF 393 = system: RXF 393
SK-MEL-28 = system: SK-MEL-28
SK-MEL-2 = system: SK-MEL-2
SK-OV-3 = system: SK-OV-3
SNB-75 = system: SNB-75
T47D = system: T47D
TK-10 = system: TK-10
U-251 = system: U-251

Cc1cc(O)c2c(c1)OC1(C)CCC3C(C)(C)CCCC34COC2C14 (stereo not drawn)
GI50 (786-0): 14.4 µM (inactive) | GI50 (A498): 13.2 µM (inactive) | GI50 (A549): 13.1 µM (inactive) | GI50 (ACHN): 12.7 µM (inactive) | GI50 (CAKI-1): 18.3 µM (inactive) | GI50 (CCRF-CEM): 20 µM (inactive) | GI50 (COLO 205): 14.4 µM (inactive) | GI50 (DLD-1): 20.4 µM (inactive) | GI50 (DMS-114): 13.9 µM (inactive) | GI50 (DMS-273): 14 µM (inactive) | GI50 (EKVX): 11.9 µM (inactive) | GI50 (HCC 2998): 14.7 µM (inactive) | GI50 (HCT-116): 14.3 µM (inactive) | GI50 (HL-60): 16.6 µM (inactive) | GI50 (HOP-62): 14.1 µM (inactive) | GI50 (IGROV-1): 19.7 µM (inactive) | GI50 (K562): 20.8 µM (inactive) | GI50 (KM-20L2): 16.6 µM (inactive) | GI50 (KM12): 16.8 µM (inactive) | GI50 (LOX IMVI): 14 µM (inactive) | GI50 (LXFL 529): 15 µM (inactive) | GI50 (M14): 14.4 µM (inactive) | GI50 (MOLT-4): 141 nM (active) | GI50 (Malme-3M): 13.3 µM (inactive) | GI50 (NCI-H226): 14 µM (inactive) | GI50 (NCI-H23): 17.6 µM (inactive) | GI50 (NCI-H460): 16.4 µM (inactive) | GI50 (NCI-H522): 17.6 µM (inactive) | GI50 (OVCAR-3): 13.4 µM (inactive) | GI50 (OVCAR-4): 18.6 µM (inactive) | GI50 (OVCAR-5): 14.7 µM (inactive) | GI50 (OVCAR-8): 16.7 µM (inactive) | GI50 (RPMI-8226): > 10 µM (inactive) | GI50 (SF-268): 13.6 µM (inactive) | GI50 (SF-295): 15.1 µM (inactive) | GI50 (SF-539): 6.43 µM (inactive) | GI50 (SK-MEL-5): 14.4 µM (inactive) | GI50 (SN12C): 16.7 µM (inactive) | GI50 (SNB-19): 18.3 µM (inactive) | GI50 (SR): > 10 µM (inactive) | GI50 (SW-620): 15.5 µM (inactive) | GI50 (UACC-257): 15.5 µM (inactive) | GI50 (UACC-62): 19.2 µM (inactive) | GI50 (UO-31): 16.7 µM (inactive)

COc1ccc(C(c2c[nH]c3ccc(Br)cc23)c2c[nH]c3ccc(Br)cc23)cc1
GI50 (786-0): 0.215 µM (active) | GI50 (A498): 1.04 µM (active) | GI50 (A549): 0.346 µM (active) | GI50 (ACHN): 0.24 µM (active) | GI50 (BT-549): 1.51 µM (inactive) | GI50 (CAKI-1): 0.382 µM (active) | GI50 (CCRF-CEM): 0.138 µM (active) | GI50 (COLO 205): 0.17 µM (active) | GI50 (DU-145): 364 nM (active) | GI50 (EKVX): 0.38 µM (active) | GI50 (HCC 2998): 0.181 µM (active) | GI50 (HCT-116): 0.149 µM (active) | GI50 (HCT-15): 214 nM | GI50 (HL-60): 0.0828 µM (active) | GI50 (HOP-62): 0.411 µM (active) | GI50 (HOP-92): 213 nM (active) | GI50 (HT-29): 294 nM (active) | GI50 (Hs-578T): 575 nM (active) | GI50 (IGROV-1): 0.264 µM (active) | GI50 (K562): 0.167 µM (active) | GI50 (KM12): 0.197 µM (active) | GI50 (LOX IMVI): 0.137 µM (active) | GI50 (M14): 0.237 µM (active) | GI50 (MCF7): 210 nM (active) | GI50 (MDA-MB-231): 242 nM (active) | GI50 (MDA-MB-435): 172 nM (active) | GI50 (MDA-N): 208 nM (active) | GI50 (MOLT-4): 142 nM (active) | GI50 (Malme-3M): 0.811 µM (active) | GI50 (NCI-H226): 0.938 µM (active) | GI50 (NCI-H23): 0.367 µM (active) | GI50 (NCI-H460): 0.228 µM (active) | GI50 (NCI-H522): 0.173 µM (active) | GI50 (NCI/ADR-RES): 357 nM (active) | GI50 (OVCAR-3): 0.217 µM (active) | GI50 (OVCAR-4): 0.267 µM (active) | GI50 (OVCAR-5): 0.385 µM (active) | GI50 (OVCAR-8): 0.22 µM (active) | GI50 (PC-3): 284 nM (active) | GI50 (RPMI-8226): 0.175 µM (active) | GI50 (RXF 393): 278 nM (active) | GI50 (SF-268): 0.33 µM (active) | GI50 (SF-295): 0.313 µM (active) | GI50 (SF-539): 0.51 µM (active) | GI50 (SK-MEL-28): 303 nM (active) | GI50 (SK-MEL-2): 366 nM (active) | GI50 (SK-MEL-5): 0.359 µM (active) | GI50 (SK-OV-3): 1.24 µM (inactive) | GI50 (SN12C): 0.31 µM (active) | GI50 (SNB-19): 0.509 µM (active) | GI50 (SNB-75): 352 nM (active) | GI50 (SR): 0.151 µM (active) | GI50 (SW-620): 0.29 µM (active) | GI50 (T47D): 446 nM (active) | GI50 (TK-10): 993 nM (active) | GI50 (U-251): 220 nM (active) | GI50 (UACC-257): 0.29 µM (active) | GI50 (UACC-62): 0.218 µM (active) | GI50 (UO-31): 0.394 µM (active)
